Results published in patent US12539292B2, “BRM targeting compounds and associated methods of use” (Arvinas Operations, Inc., priority 2018, dated 2026).

Target: T1, BRM (Homo sapiens, UniProt P51531)
T1 construct: In-Cell Western Screen of BRM Degradation in SW1573 Cells; endogenous in cells; host or cells: SW1573
Assay: In-cell Western screen of BRM degradation in SW1573 cells (Dmax and DC50)
Type: cell-based
Conditions: BRM degradation, SW1573 cells; for DC50: read-out: DC50; for Dmax: tested at the top concentration of between 0.3 and 10 μM, read-out: Dmax (%) (% degraded)
In short: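 SW1573 cells were treated with compound overnight (18-20 h; final DMSO 0.1%), then fixed in 4% PFA, permeabilized with Triton X-100 and blocked. BRM was detected by in-cell Western using 800 nm anti-rabbit and 680 nm anti-mouse secondaries, and Dmax and DC50 were derived from the LI-COR Odyssey signal.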

T1 sequence (P51531 whole entry): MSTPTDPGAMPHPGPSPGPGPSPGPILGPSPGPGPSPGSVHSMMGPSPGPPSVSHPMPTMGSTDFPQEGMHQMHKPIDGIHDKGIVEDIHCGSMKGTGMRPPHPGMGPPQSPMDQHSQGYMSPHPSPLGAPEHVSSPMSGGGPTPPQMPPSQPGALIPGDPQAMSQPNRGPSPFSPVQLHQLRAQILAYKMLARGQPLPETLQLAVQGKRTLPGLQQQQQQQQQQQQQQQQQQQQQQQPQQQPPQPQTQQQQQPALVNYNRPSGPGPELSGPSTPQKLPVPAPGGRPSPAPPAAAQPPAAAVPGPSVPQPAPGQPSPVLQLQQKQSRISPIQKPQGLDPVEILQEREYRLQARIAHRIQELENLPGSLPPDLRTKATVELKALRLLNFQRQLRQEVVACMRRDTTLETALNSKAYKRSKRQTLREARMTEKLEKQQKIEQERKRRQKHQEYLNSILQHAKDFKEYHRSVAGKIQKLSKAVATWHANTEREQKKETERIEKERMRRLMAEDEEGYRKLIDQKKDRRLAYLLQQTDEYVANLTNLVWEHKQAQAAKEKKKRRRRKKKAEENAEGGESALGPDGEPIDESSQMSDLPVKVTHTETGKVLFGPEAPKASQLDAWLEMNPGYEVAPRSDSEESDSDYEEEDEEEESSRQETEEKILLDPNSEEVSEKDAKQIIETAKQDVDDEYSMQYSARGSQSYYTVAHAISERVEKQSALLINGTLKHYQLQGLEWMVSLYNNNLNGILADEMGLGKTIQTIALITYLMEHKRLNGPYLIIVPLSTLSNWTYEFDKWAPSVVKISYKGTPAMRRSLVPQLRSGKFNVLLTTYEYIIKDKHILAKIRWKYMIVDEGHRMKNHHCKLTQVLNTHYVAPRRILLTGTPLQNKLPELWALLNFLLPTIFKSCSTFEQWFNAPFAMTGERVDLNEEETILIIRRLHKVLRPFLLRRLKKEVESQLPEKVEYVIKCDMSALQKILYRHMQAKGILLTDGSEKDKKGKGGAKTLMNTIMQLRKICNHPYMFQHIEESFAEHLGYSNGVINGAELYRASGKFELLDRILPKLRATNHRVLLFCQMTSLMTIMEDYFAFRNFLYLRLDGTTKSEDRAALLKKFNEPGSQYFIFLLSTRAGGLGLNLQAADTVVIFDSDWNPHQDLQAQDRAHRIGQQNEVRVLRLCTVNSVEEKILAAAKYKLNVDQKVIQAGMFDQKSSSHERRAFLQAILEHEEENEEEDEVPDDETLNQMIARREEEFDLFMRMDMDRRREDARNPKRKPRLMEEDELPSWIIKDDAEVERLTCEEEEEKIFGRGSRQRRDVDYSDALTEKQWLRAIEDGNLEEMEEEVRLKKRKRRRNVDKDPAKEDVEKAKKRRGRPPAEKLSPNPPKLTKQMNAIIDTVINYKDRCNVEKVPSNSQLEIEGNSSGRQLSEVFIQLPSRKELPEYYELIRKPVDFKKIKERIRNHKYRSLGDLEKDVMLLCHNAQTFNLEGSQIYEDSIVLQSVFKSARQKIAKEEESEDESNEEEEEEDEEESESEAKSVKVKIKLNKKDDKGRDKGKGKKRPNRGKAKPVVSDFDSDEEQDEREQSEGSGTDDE

SMILES | DC50 | Dmax
Cc1ncsc1-c1ccc([C@H](C)NC(=O)[C@@H]2C[C@@H](O)CN2C(=O)[C@H](c2cc(OCCCC#Cc3ccc(O[C@H]4C[C@H](Oc5cc(N6C7CCC6CN(c6cc(-c8ccccc8O)nnc6N)C7)ccn5)C4)cn3)no2)C(C)C)cc1 [compound 249, (2S,4R)-1-((2S)-2-(3-((5-(5-((1r,3r)-3-((4-(3-(3-amino-6-(2-hydroxyphenyl)pyridazin-4-yl)-3,8-diazabicyclo[3.2.1]octan-8-yl)pyridin-2-yl)oxy)cyclobutoxy)pyridin-2-yl)pent-4-yn-1-yl)oxy)isoxazol-5-yl)-3-methylbutanoyl)-4-hydroxy-N-((S)-1-(4-(4-methylthiazol-5-yl)phenyl)ethyl)pyrrolidine-2-carboxamide] | > 0.03 µM | > 75%
Cc1ncsc1-c1ccc([C@H](C)NC(=O)[C@@H]2C[C@@H](O)CN2C(=O)[C@@H](c2cc(OCCCC#Cc3ccc(O[C@H]4C[C@H](Oc5cc(N6C7CCC6CN(c6cc(-c8ccccc8O)nnc6N)C7)ccn5)C4)cn3)no2)C(C)C)cc1 [compound 250, (2S,4R)-1-((2R)-2-(3-((5-(5-((1r,3r)-3-((4-(3-(3-amino-6-(2-hydroxyphenyl)pyridazin-4-yl)-3,8-diazabicyclo[3.2.1]octan-8-yl)pyridin-2-yl)oxy)cyclobutoxy)pyridin-2-yl)pent-4-yn-1-yl)oxy)isoxazol-5-yl)-3-methylbutanoyl)-4-hydroxy-N-((S)-1-(4-(4-methylthiazol-5-yl)phenyl)ethyl)pyrrolidine-2-carboxamide] | < 0.0025 µM | > 75%
Cc1ncsc1-c1ccc([C@H](C)NC(=O)[C@@H]2C[C@@H](O)CN2C(=O)[C@H](c2cc(OCCN3CCC(O[C@H]4C[C@H](Oc5cc(N6C7CCC6CN(c6cc(-c8ccccc8O)nnc6N)C7)ccn5)C4)CC3)no2)C(C)C)cc1F [compound 252, (2S,4R)-1-((2S)-2-(3-(2-(4-((1r,3S)-3-((4-(3-(3-amino-6-(2-hydroxyphenyl)pyridazin-4-yl)-3,8-diazabicyclo[3.2.1]octan-8-yl)pyridin-2-yl)oxy)cyclobutoxy)piperidin-1-yl)ethoxy)isoxazol-5-yl)-3-methylbutanoyl)-N-((S)-1-(3-fluoro-4-(4-methylthiazol-5-yl)phenyl)ethyl)-4-hydroxypyrrolidine-2-carboxamide] | > 0.03 µM | > 75%
Cc1ncsc1-c1ccc([C@H](C)NC(=O)[C@@H]2C[C@@H](O)CN2C(=O)[C@@H](c2cc(OCCN3CCC(O[C@H]4C[C@H](Oc5cc(N6C7CCC6CN(c6cc(-c8ccccc8O)nnc6N)C7)ccn5)C4)CC3)no2)C(C)C)cc1F [compound 253, (2S,4R)-1-((2R)-2-(3-(2-(4-((1r,3R)-3-((4-(3-(3-amino-6-(2-hydroxyphenyl)pyridazin-4-yl)-3,8-diazabicyclo[3.2.1]octan-8-yl)pyridin-2-yl)oxy)cyclobutoxy)piperidin-1-yl)ethoxy)isoxazol-5-yl)-3-methylbutanoyl)-N-((S)-1-(3-fluoro-4-(4-methylthiazol-5-yl)phenyl)ethyl)-4-hydroxypyrrolidine-2-carboxamide] | < 0.0025 µM | > 75%
Cc1ncsc1-c1ccc([C@H](C)NC(=O)[C@H]2C[C@H](O)CN2C(=O)C(c2cc(OCCN3CCC(O[C@H]4C[C@H](Oc5cc(N6C7CCC6CN(c6cc(-c8ccccc8O)nnc6N)C7)ccn5)C4)CC3)no2)C(C)C)cn1 (stereo partly drawn) [compound 254, (2R,4S)-1-(2-(3-(2-(4-((1r,3r)-3-((4-(3-(3-amino-6-(2-hydroxyphenyl)pyridazin-4-yl)-3,8-diazabicyclo[3.2.1]octan-8-yl)pyridin-2-yl)oxy)cyclobutoxy)piperidin-1-yl)ethoxy)isoxazol-5-yl)-3-methylbutanoyl)-4-hydroxy-N-((S)-1-(6-(4-methylthiazol-5-yl)pyridin-3-yl)ethyl)pyrrolidine-2-carboxamide] | > 0.03 µM | –
Cc1ncsc1-c1ccc([C@@H](CN)NC(=O)[C@@H]2C[C@@H](O)CN2C(=O)[C@H](c2cc(OCCN3CCN(CCOc4cc(N5C6CCC5CN(c5cc(-c7ccccc7O)nnc5N)C6)ccn4)CC3)no2)C(C)C)cc1 [compound 255, (2S,4R)-N-((S)-2-amino-1-(4-(4-methylthiazol-5-yl)phenyl)ethyl)-1-((2S)-2-(3-(2-(4-(2-((4-(3-(3-amino-6-(2-hydroxyphenyl)pyridazin-4-yl)-3,8-diazabicyclo[3.2.1]octan-8-yl)pyridin-2-yl)oxy)ethyl)piperazin-1-yl)ethoxy)isoxazol-5-yl)-3-methylbutanoyl)-4-hydroxypyrrolidine-2-carboxamide] | > 0.03 µM | –
Cc1ncsc1-c1ccc([C@@H](CN)NC(=O)[C@@H]2C[C@@H](O)CN2C(=O)[C@@H](c2cc(OCCN3CCN(CCOc4cc(N5C6CCC5CN(c5cc(-c7ccccc7O)nnc5N)C6)ccn4)CC3)no2)C(C)C)cc1 [compound 256, (2S,4R)-N-((S)-2-amino-1-(4-(4-methylthiazol-5-yl)phenyl)ethyl)-1-((2R)-2-(3-(2-(4-(2-((4-(3-(3-amino-6-(2-hydroxyphenyl)pyridazin-4-yl)-3,8-diazabicyclo[3.2.1]octan-8-yl)pyridin-2-yl)oxy)ethyl)piperazin-1-yl)ethoxy)isoxazol-5-yl)-3-methylbutanoyl)-4-hydroxypyrrolidine-2-carboxamide] | > 0.03 µM | –
CCOC[C@H](NC(=O)[C@@H]1C[C@@H](O)CN1C(=O)[C@H](c1cc(OCCN2CCN(CCOc3cc(N4C5CCC4CN(c4cc(-c6ccccc6O)nnc4N)C5)ccn3)CC2)no1)C(C)C)c1ccc(-c2scnc2C)cc1 [compound 257, (2S,4R)-1-((2S)-2-(3-(2-(4-(2-((4-(3-(3-amino-6-(2-hydroxyphenyl)pyridazin-4-yl)-3,8-diazabicyclo[3.2.1]octan-8-yl)pyridin-2-yl)oxy)ethyl)piperazin-1-yl)ethoxy)isoxazol-5-yl)-3-methylbutanoyl)-N-((R)-2-ethoxy-1-(4-(4-methylthiazol-5-yl)phenyl)ethyl)-4-hydroxypyrrolidine-2-carboxamide] | 0.0025 to 0.01 µM | > 75%
Cc1ncsc1-c1ccc([C@@H](NC(=O)[C@@H]2C[C@@H](O)CN2C(=O)[C@H](c2cc(OCCN3CCN(CCOc4cc(N5C6CCC5CN(c5cc(-c7ccccc7O)nnc5N)C6)ccn4)CC3)no2)C(C)C)C(=O)N(C)c2ccccc2)cc1 [compound 258, (2S,4R)-1-((2S)-2-(3-(2-(4-(2-((4-(3-(3-amino-6-(2-hydroxyphenyl)pyridazin-4-yl)-3,8-diazabicyclo[3.2.1]octan-8-yl)pyridin-2-yl)oxy)ethyl)piperazin-1-yl)ethoxy)isoxazol-5-yl)-3-methylbutanoyl)-4-hydroxy-N-((R)-2-(methyl(phenyl)amino)-1-(4-(4-methylthiazol-5-yl)phenyl)-2-oxoethyl)pyrrolidine-2-carboxamide] | > 0.03 µM | –
Cc1ncsc1-c1ccc([C@@H](NC(=O)[C@@H]2C[C@@H](O)CN2C(=O)[C@@H](c2cc(OCCN3CCN(CCOc4cc(N5C6CCC5CN(c5cc(-c7ccccc7O)nnc5N)C6)ccn4)CC3)no2)C(C)C)C(=O)N(C)c2ccccc2)cc1 [compound 259, (2S,4R)-1-((2R)-2-(3-(2-(4-(2-((4-(3-(3-amino-6-(2-hydroxyphenyl)pyridazin-4-yl)-3,8-diazabicyclo[3.2.1]octan-8-yl)pyridin-2-yl)oxy)ethyl)piperazin-1-yl)ethoxy)isoxazol-5-yl)-3-methylbutanoyl)-4-hydroxy-N-((R)-2-(methyl(phenyl)amino)-1-(4-(4-methylthiazol-5-yl)phenyl)-2-oxoethyl)pyrrolidine-2-carboxamide] | < 0.0025 µM | > 75%
Cc1ncsc1-c1ccc([C@H](C)NC(=O)[C@@H]2C[C@@H](O)CN2C(=O)[C@H](c2cc(OCCC3CCN(C(=O)[C@H]4C[C@H](Oc5cc(N6C7CCC6CN(c6cc(-c8ccccc8O)nnc6N)C7)ccn5)C4)CC3)no2)C(C)C)cn1 [compound 260, (2S,4R)-1-((2S)-2-(3-(2-(1-((1r,3S)-3-((4-(3-(3-amino-6-(2-hydroxyphenyl)pyridazin-4-yl)-3,8-diazabicyclo[3.2.1]octan-8-yl)pyridin-2-yl)oxy)cyclobutane-1-carbonyl)piperidin-4-yl)ethoxy)isoxazol-5-yl)-3-methylbutanoyl)-4-hydroxy-N-((S)-1-(6-(4-methylthiazol-5-yl)pyridin-3-yl)ethyl)pyrrolidine-2-carboxamide] | > 0.03 µM | –
Cc1ncsc1-c1ccc([C@H](C)NC(=O)[C@@H]2C[C@@H](O)CN2C(=O)[C@@H](c2cc(OCCC3CCN(C(=O)[C@H]4C[C@H](Oc5cc(N6C7CCC6CN(c6cc(-c8ccccc8O)nnc6N)C7)ccn5)C4)CC3)no2)C(C)C)cn1 [compound 261, (2S,4R)-1-((2R)-2-(3-(2-(1-((1r,3R)-3-((4-(3-(3-amino-6-(2-hydroxyphenyl)pyridazin-4-yl)-3,8-diazabicyclo[3.2.1]octan-8-yl)pyridin-2-yl)oxy)cyclobutane-1-carbonyl)piperidin-4-yl)ethoxy)isoxazol-5-yl)-3-methylbutanoyl)-4-hydroxy-N-((S)-1-(6-(4-methylthiazol-5-yl)pyridin-3-yl)ethyl)pyrrolidine-2-carboxamide] | < 0.0025 µM | > 75%
Cc1ncsc1-c1ccc([C@H](COCC2CCOCC2)NC(=O)[C@@H]2C[C@@H](O)CN2C(=O)[C@H](c2cc(OCCN3CCN(CCOc4cc(N5C6CCC5CN(c5cc(-c7ccccc7O)nnc5N)C6)ccn4)CC3)no2)C(C)C)cc1 [compound 262, (2S,4R)-1-((2S)-2-(3-(2-(4-(2-((4-(3-(3-amino-6-(2-hydroxyphenyl)pyridazin-4-yl)-3,8-diazabicyclo[3.2.1]octan-8-yl)pyridin-2-yl)oxy)ethyl)piperazin-1-yl)ethoxy)isoxazol-5-yl)-3-methylbutanoyl)-4-hydroxy-N-((R)-1-(4-(4-methylthiazol-5-yl)phenyl)-2-((tetrahydro-2H-pyran-4-yl)methoxy)ethyl)pyrrolidine-2-carboxamide] | > 0.03 µM | –
